Entries after “also recorded” stand apart in the source; their conditions may differ.
Experiments:
human recombinant PHGDH = target: T1, human recombinant PHGDH (Homo sapiens, UniProt O43175); assay: PHGDH enzyme activity, colorimetric PHGDH activity kit (absorbance at 450 nm, NADH generated)
T1 sequence (O43175 1-533): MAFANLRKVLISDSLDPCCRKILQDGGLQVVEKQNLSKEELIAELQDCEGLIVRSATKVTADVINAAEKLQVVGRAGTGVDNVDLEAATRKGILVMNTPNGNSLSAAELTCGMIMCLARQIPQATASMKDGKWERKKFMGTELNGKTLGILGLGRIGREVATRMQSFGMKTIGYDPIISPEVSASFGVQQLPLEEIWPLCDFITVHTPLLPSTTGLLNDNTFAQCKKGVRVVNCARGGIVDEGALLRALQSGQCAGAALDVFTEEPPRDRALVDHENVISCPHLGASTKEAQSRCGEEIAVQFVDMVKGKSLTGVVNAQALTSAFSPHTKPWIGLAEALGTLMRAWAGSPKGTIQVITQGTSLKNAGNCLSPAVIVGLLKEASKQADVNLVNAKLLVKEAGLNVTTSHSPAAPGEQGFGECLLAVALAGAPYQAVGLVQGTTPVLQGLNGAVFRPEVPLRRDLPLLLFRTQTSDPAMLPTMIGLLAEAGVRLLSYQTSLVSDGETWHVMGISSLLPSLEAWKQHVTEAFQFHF
Experimental: As a readout, absorbance at 450 nm, indicative for the amount of NADH generated, was measured over time.

[1] = system: EKP-induced epileptiform activity in zebrafish; assay: Zebrafish EKP-induced seizure model, LFP recordings; format: in vivo
Experimental: FIG. 3. Representative LFP recordings of zebrafish in the absence (VHC) or presence of EKP, treated with 8.5-4.3 μM idebenone or untreated (VHC), in the presence or absence of a specific PHGDH inhibitor CBR-5884 [Mullarky et al. (2016) Proc Natl Acad Sci USA 113, 1778-1783].
FIG. 4: Normalized PSD per larvae for the different conditions. Number of epileptic events within a 10-min recording (mean±SEM.). Number of recordings analysed were: VHC (n=9), EKP (n=15), 8.5 μM idebenone (Ide) (n=10), 4.3 μM idebenone (n=10), 4.3 μM idebenone+inhibitor (n=9). PHGDH-inhibitor CBR-5884 was used. Statistical differences as compared to the EKP-only treated larvae were assessed by the following statistical analysis: one-way ANOVA with Dunnett's multiple comparison test. A statistical difference is indicated by: **p<0.01, ***p<0.001 and ****p<0.0001.ns=not significant.
Common to all epilepsies, seizures occur due to an abnormal, excessive and synchronous activity of large neuronal populations. As such, seizures can be observed on electrophysiological recordings such as invasive or non-invasive local field potential (LFP) measurements, being a counterpart of electroencephalogram (EEG) performed in humans. Indeed, these techniques serve as a gold standard for epilepsy diagnosis. […]

[2] = system: Arginase 1 expression (microglia/macrophage M2 marker); assay: Temporal lobe epilepsy model (SSSE), Arginase-1 expression by real-time quantitative PCR of brain tissue; format: in vivo, C57bl/6 mice; settings: 100 mg/kg twice daily i.p. for one week, vs vehicle control; p=0.017; two-way ANOVA (FIG. 5)
Experimental: The present example investigates whether Idebenone has the potential to modulate neuroinflammation from an M1 to M2 phenotype. […] (control animals received vehicle injections for one week). Idebenone was suspended in 5% dimethyl sulfoxide and 20% Kolliphor RH40 in 0.01M PBS. Expression of the major marker for M2 polarization, Arginase-1, was assessed via real-time quantitative PCR upon brain tissue processing. Two-way ANOVA analysis was performed to evaluate the effect of two factors including the treatment and the SSSE [self-sustained Electrical Status Epilepticus], and any interaction of the two factors.

[3] = system: EKP-induced seizures in zebrafish larvae; assay: Zebrafish EKP-induced seizure model, locomotor activity tracking; format: in vivo; settings: 8.5 μM, 2 h pre-incubation, 300 μM EKP, 7 dpf larvae, 30 min recording; ****p<0.0001
Experimental: FIG. 2. Activity profile of 8.5 μM idebenone after 300 μM EKP exposure. Locomotor activity was quantified using ZebraLab™ software (Viewpoint, Lyon, France) and expressed in mean “actinteg” units per 5-min+/−SEM during a 30 min recording interval as indicated above. Statistical analysis: one-way ANOVA with Dunnett's multiple comparison test. A statistical difference is indicated by: ****p<0.0001. For each condition n=10 larvae were used and the experiment was performed three times (n total=30 per condition).
The EKP-induced epilepsy zebrafish model is a suitable model to investigate drug resistant epilepsy. Ethyl ketopentenoate (EKP) is a lipid-permeable GAD-inhibitor that results in […] and drug resistant seizures in zebrafish [Zhang et al. (2017) Sci Rep. 7, 7195]. […]
Larvae (7dpf) in 100 μl VHC were arrayed individually in a 96-well plate (tissue culture plate, at bottom, Falcon, USA) and kept in the light at 28° C. […] The plates were placed in an automated video tracking device (ZebraBox™ apparatus; Viewpoint, Lyon, France) and the locomotor behaviour of the larvae was monitored for […] in the dark at 28° C. Locomotor activity was quantified using ZebraLab™ software (Viewpoint, Lyon, France) and expressed in “actinteg” units per 5-min interval. […] The actinteg value is defined as the sum of all image pixel changes detected during the time window.

[4] = system: pilocarpine-induced seizures; settings: rats, preventive treatment 3 days prior to pilocarpine injection; Ahmed (2014); cited from earlier work
[5] = mouse, in vivo; cited from earlier work
[6] = system: EKP-induced epileptiform activity in zebrafish; settings: 1 μM; Zhang et al. (2017); cited from earlier work

CBR-5884
blocking of idebenone-induced increased PHGDH activity (human recombinant PHGDH; co-administration with idebenone): can be blocked by co-administration
blocking of the anti-seizure activity of idebenone ([1]; co-administration with idebenone (4.3 μM)): could be blocked by co-administration

COC1=C(OC)C(=O)C(CCCCCCCCCCO)=C(C)C1=O [Idebenone, 6-(10-hydroxydecyl)-2,3-dimethoxy-5-methyl-1,4-benzoquinone]
expression of M2 marker Arginase 1 [2]: increases the expression; also recorded: significant increase
EKP-induced seizures assessed as locomotor movement (actinteg units per 5-min) [3]: significantly reduced EKP-induced seizures
effect on the oxido-reduction reaction toward NADH generation (compound itself) (human recombinant PHGDH): does not affect the oxido-reduction reaction toward NADH generation
PHGDH enzyme activity (human recombinant PHGDH; 25 µM idebenone, over time, DMSO 0.5% (FIG. 1)): induces increased enzyme activity of PHGDH
neuroprotection in pilocarpine-induced seizure model [4]: provides neuroprotection
LD50 [5]: exceeds 10,000 mg/kg
EKP-induced epileptiform activity, LFP recordings ([1]; 8.5-4.3 μM, 10-min recording): significantly reduced EKP-induced epileptiform activity

N#Cc1ccccc1-c1cc(-c2ccccn2)cn(-c2ccccc2)c1=O [Perampanel]
anti-seizure activity in the EKP model [6]: anti-seizure activity
